PubChem BioAssay (NCI)
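Where inhibition never reached the appropriate level, the endpoint shown equals the highest concentration tested. Otherwise, values were interpolated linearly from a five-concentration, 48-hour dose response in 96-well plates. At the GI50, growth is halved. Definition used: TGI = concentration required for complete inhibition of growth.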

Tests used:
Test in all cases: NCI anticancer screen, dose series, 48 h
[1] = system: 786-0 renal
[2] = system: A549 NSCLC
[3] = system: ACHN renal
[4] = system: CAKI-1 renal
[5] = system: CCRF-CEM leukemia
[6] = system: COLO 205 colon
[7] = system: DLD-1 colon
[8] = system: DMS 114 small cell lung
[9] = system: DMS 273 small cell lung
[10] = system: EKVX NSCLC
[11] = system: HCC-2998 colon
[12] = system: HCT-116 colon
[13] = system: HCT-15 colon
[14] = system: HL-60(TB) leukemia
[15] = system: HOP-18 NSCLC
[16] = system: HOP-62 NSCLC
[17] = system: HOP-92 NSCLC
[18] = system: HT29 colon
[19] = system: IGROV1 ovarian
[20] = system: K-562 leukemia
[21] = system: KM20L2 colon
[22] = system: LOX IMVI melanoma
[23] = system: LXFL 529 NSCLC
[24] = system: M14 melanoma
[25] = system: M19-MEL melanoma
[26] = system: MALME-3M melanoma
[27] = system: MOLT-4 leukemia
[28] = system: NCI-H226 lung
[29] = system: NCI-H23 lung
[30] = system: NCI-H460 lung
[31] = system: NCI-H522 lung
[32] = system: OVCAR-3 ovarian
[33] = system: OVCAR-4 ovarian
[34] = system: OVCAR-5 ovarian
[35] = system: OVCAR-8 ovarian
[36] = system: RPMI-8226 leukemia
[37] = system: RXF 393 renal
[38] = system: SF-268 CNS
[39] = system: SF-295 CNS
[40] = system: SF-539 CNS
[41] = system: SK-MEL-2 melanoma
[42] = system: SK-MEL-28 melanoma
[43] = system: SK-MEL-5 melanoma
[44] = system: SK-OV-3 ovarian
[45] = system: SN12C renal
[46] = system: SNB-19 CNS
[47] = system: SNB-75 CNS
[48] = system: SNB-78 CNS
[49] = system: SR leukemia
[50] = system: SW-620 colon
[51] = system: TK-10 renal
[52] = system: U251 CNS
[53] = system: UACC-257 melanoma
[54] = system: UACC-62 melanoma
[55] = system: UO-31 renal
[56] = system: XF 498 CNS
[57] = system: A498 renal
[58] = system: KM12 colon
[59] = system: RXF-631 renal

COc1cc(OC)cc(-c2cc(=O)c3cc4c(cc3[nH]2)OCO4)c1
TGI [1]: 33 µM
TGI [2]: 45.1 µM
TGI [3]: > 35.5 µM
TGI [4]: > 100 µM
TGI [5]: 4.56 µM
TGI [6]: 0.471 µM
TGI [7]: 36.4 µM
TGI [8]: 0.726 µM
TGI [9]: 3.31 µM
TGI [10]: > 100 µM
TGI [11]: 0.787 µM
TGI [12]: 5.5 µM
TGI [13]: 22.8 µM
TGI [14]: 0.714 µM
TGI [15]: > 75.6 µM
TGI [16]: 17.9 µM
TGI [17]: 21.1 µM
TGI [18]: > 100 µM
TGI [19]: 18.2 µM
TGI [20]: > 50.2 µM
TGI [21]: 0.652 µM
TGI [22]: > 51.1 µM
TGI [23]: 20.6 µM
TGI [24]: > 48.1 µM
TGI [25]: > 100 µM
TGI [26]: > 100 µM
TGI [27]: > 51 µM
TGI [28]: 1.06 µM
TGI [29]: 9.09 µM
TGI [30]: 3.33 µM
TGI [31]: 0.593 µM
TGI [32]: 5.82 µM
TGI [33]: > 96.1 µM
TGI [34]: > 63.1 µM
TGI [35]: 9.55 µM
TGI [36]: > 58.8 µM
GI50 [37]: 0.219 µM
TGI [37]: 0.518 µM
TGI [38]: 38.6 µM
TGI [39]: 1.74 µM
TGI [40]: 0.498 µM
TGI [41]: 4.46 µM
TGI [42]: > 71.7 µM
TGI [43]: 8.23 µM
TGI [44]: 4.49 µM
TGI [45]: 30 µM
TGI [46]: 72.5 µM
TGI [47]: 43.7 µM
TGI [48]: > 89.2 µM
TGI [49]: 9.54 µM
TGI [50]: > 100 µM
TGI [51]: 55 µM
TGI [52]: > 31.9 µM
TGI [53]: > 100 µM
TGI [54]: > 53.3 µM
TGI [55]: > 88.9 µM
TGI [56]: 2.58 µM

O=C1C2C3CC(C4C5C=CC(C5)C34)C2C2C3CC(C12)C1C2C=CC(C2)C31 (stereo not given)
TGI [1]: > 100 µM
TGI [57]: > 100 µM
TGI [2]: > 100 µM
TGI [3]: > 100 µM
TGI [4]: > 100 µM
TGI [5]: > 100 µM
TGI [6]: > 100 µM
TGI [7]: > 100 µM
TGI [8]: > 100 µM
TGI [9]: > 100 µM
TGI [10]: > 100 µM
TGI [11]: > 100 µM
TGI [12]: > 100 µM
TGI [13]: > 100 µM
TGI [14]: > 100 µM
TGI [15]: > 100 µM
TGI [16]: > 100 µM
TGI [17]: > 100 µM
TGI [18]: > 100 µM
TGI [19]: > 100 µM
TGI [20]: > 100 µM
TGI [58]: > 100 µM
TGI [21]: > 100 µM
TGI [22]: > 100 µM
TGI [23]: > 100 µM
TGI [24]: > 100 µM
TGI [25]: > 100 µM
TGI [26]: > 100 µM
TGI [27]: > 100 µM
TGI [28]: > 100 µM
TGI [29]: > 100 µM
TGI [30]: > 100 µM
TGI [31]: > 100 µM
TGI [32]: > 100 µM
TGI [33]: > 100 µM
TGI [34]: > 100 µM
TGI [35]: > 100 µM
TGI [37]: > 100 µM
TGI [59]: > 100 µM
TGI [38]: > 100 µM
TGI [39]: > 100 µM
TGI [40]: > 100 µM
TGI [41]: > 100 µM
TGI [42]: > 100 µM
TGI [43]: > 100 µM
TGI [44]: > 100 µM
TGI [45]: > 100 µM
TGI [46]: > 100 µM
TGI [47]: > 100 µM
TGI [48]: > 100 µM
TGI [49]: > 100 µM
TGI [50]: 49.5 µM
TGI [51]: > 100 µM
TGI [52]: > 100 µM
TGI [53]: > 100 µM
TGI [54]: > 100 µM
TGI [55]: > 100 µM
TGI [56]: > 100 µM
